Data taken from publication PMC8352719 (The Journal of General Physiology, 2021).

Target: BKα/γ1 channels (Homo sapiens, UniProt Q12791)
Assay: Whole-cell recordings from HEK-293T cells overexpressing BKα/γ1 channels
Type: cell-based

Sequence of BKα/γ1 channels (Q12791 whole entry): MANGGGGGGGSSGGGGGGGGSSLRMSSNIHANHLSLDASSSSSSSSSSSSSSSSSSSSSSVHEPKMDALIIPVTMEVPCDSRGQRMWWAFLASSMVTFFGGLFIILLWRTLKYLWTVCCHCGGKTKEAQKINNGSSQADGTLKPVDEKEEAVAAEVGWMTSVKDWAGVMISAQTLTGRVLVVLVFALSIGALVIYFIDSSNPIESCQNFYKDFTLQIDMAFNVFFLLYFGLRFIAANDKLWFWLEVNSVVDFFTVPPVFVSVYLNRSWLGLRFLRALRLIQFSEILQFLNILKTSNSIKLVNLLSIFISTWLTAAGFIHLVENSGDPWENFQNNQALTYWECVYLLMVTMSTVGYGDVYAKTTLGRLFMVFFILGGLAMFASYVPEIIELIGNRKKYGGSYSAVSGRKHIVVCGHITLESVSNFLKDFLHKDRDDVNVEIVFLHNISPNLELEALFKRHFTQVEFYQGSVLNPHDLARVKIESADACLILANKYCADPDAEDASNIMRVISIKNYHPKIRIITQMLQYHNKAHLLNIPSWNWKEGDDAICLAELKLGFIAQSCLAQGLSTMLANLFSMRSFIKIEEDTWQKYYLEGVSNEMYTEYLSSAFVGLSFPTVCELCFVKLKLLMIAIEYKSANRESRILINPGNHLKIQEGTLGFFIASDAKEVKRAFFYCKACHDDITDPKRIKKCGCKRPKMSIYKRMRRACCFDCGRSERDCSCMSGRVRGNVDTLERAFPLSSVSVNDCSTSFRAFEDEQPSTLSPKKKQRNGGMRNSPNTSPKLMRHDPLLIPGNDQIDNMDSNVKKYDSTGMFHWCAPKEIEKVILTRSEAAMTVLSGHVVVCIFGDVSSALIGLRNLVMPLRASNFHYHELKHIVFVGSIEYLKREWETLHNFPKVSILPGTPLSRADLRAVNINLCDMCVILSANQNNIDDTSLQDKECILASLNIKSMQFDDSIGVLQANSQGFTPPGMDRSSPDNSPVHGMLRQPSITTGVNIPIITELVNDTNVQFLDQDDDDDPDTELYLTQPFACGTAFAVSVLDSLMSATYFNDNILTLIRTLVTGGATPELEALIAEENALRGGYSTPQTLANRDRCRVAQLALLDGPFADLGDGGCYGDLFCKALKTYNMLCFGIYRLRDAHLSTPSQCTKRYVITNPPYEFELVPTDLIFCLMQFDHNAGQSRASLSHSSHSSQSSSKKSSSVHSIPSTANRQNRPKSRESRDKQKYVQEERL
Sequence of BKα/γ1 channels (Q2I0M4 27-334 partner): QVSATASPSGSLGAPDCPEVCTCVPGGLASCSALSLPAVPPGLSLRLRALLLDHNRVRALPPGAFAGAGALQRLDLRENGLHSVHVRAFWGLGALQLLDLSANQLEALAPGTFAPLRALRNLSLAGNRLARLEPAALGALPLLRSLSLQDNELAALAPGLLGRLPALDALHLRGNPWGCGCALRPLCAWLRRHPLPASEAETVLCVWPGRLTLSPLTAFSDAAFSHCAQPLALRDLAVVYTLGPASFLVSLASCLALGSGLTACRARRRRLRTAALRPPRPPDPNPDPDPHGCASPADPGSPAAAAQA

fractional current not blocked (1 mM extracellular TEA): 0.082 ± 0.0007 | time constant to reach equilibrium (bath application of 1 mM TEA): 8.4 ± 1 s | τ of exponential fit (c) (representative experiment Fig. 5 A, back to 0 LOP/0 TEA at t = 17 min): 13.2 s | τ of exponential fit (b) (representative experiment Fig. 5 A, switch to 1 mM TEA at t = 15 min): 7.3 s
Compound: CC[N+](CC)(CC)CC [TEA]
